Source: patent publication US4650801A, “Anti-cancer compositions for delivering 5-fluorouracil” (Taiho Pharmaceutical Company, Ltd., priority 1978, dated 1987)

Tested on: sarcoma 180
Assay: Anti-cancer effect on subcutaneously transplanted sarcoma 180 in mice
Type: in vivo, mouse
Description: The anti-cancer compositions of this invention are tested in mice by the following methods to determine acute toxicity, anti-cancer effect and therapeutic index
Tissues of sarcoma 180, 2×10^6, are subcutaneously transplanted in the back of male mice of ICR strain (6 mice in each group). A 5-fluorouracil (a) and uracil derivative (b) in the proportions listed in Tables 1-16 are suspended in a 5% solution of gum arabic to prepare a suspension. Twenty-four hours after the transplantation and during the following seven consecutive days the suspension is orally given to the animal once every day. On the 10th day after the transplantation, the tumor is removed from the body and weighed to calculate the average weight (T) of the tumors in the group to which the composition has been given and the corresponding weight (C) in the control group to determine the ratio T/C.

With `O=c1[nH]cc(F)c(=O)n1C1CCCO1` (stereo not shown) [Compound 6, 3-(2-Tetrahydrofuryl)-5-fluorouracil] the ED50 ((b) = 1(2-Tetrahydrofuryl)uracil, (b)/(a) mol ratio 1) was 51 mg/kg, the ED50 ((b) = 1(2-Tetrahydrofuryl)uracil, (b)/(a) mol ratio 2) was 29 mg/kg and the ED50 ((b) = 1(2-Tetrahydrofuryl)uracil, (b)/(a) mol ratio 5) was 18 mg/kg. For the same molecule, the ED50 ((b) = 1Acetyluracil, (b)/(a) mol ratio 1) was 32 mg/kg, the ED50 ((b) = 1Acetyluracil, (b)/(a) mol ratio 2) was 26 mg/kg and the ED50 ((b) = 1Acetyluracil, (b)/(a) mol ratio 5) was 16 mg/kg. The ED50 ((b) = 1Cyclohexylcarbamoyluracil, (b)/(a) mol ratio 0.5) was 55 mg/kg, the ED50 ((b) = 1Cyclohexylcarbamoyluracil, (b)/(a) mol ratio 2) was 46 mg/kg and the ED50 ((b) = 1Cyclohexylcarbamoyluracil, (b)/(a) mol ratio 5) was 33 mg/kg. The ED50 ((b) = 1n-Hexylcarbamoyluracil, (b)/(a) mol ratio 1) was 59 mg/kg, the ED50 ((b) = 1n-Hexylcarbamoyluracil, (b)/(a) mol ratio 2) was 41 mg/kg and the ED50 ((b) = 1n-Hexylcarbamoyluracil, (b)/(a) mol ratio 10) was 28 mg/kg. For the same molecule, the ED50 ((b) = 2'-Deoxycytidine, (b)/(a) mol ratio 1) was 59 mg/kg, the ED50 ((b) = 2'-Deoxycytidine, (b)/(a) mol ratio 2) was 47 mg/kg and the ED50 ((b) = 2'-Deoxycytidine, (b)/(a) mol ratio 10) was 34 mg/kg. For the same molecule, the ED50 ((b) = 2'-Deoxyuridine, (b)/(a) mol ratio 1) was 53 mg/kg, the ED50 ((b) = 2'-Deoxyuridine, (b)/(a) mol ratio 2) was 42 mg/kg and the ED50 ((b) = 2'-Deoxyuridine, (b)/(a) mol ratio 20) was 26 mg/kg. For the same molecule, the ED50 ((b) = 3Benzoyluracil, (b)/(a) mol ratio 1) was 42 mg/kg, the ED50 ((b) = 3Benzoyluracil, (b)/(a) mol ratio 2) was 32 mg/kg and the ED50 ((b) = 3Benzoyluracil, (b)/(a) mol ratio 10) was 25 mg/kg. It also gave an ED50 ((b) = 5Bromo-2'-deoxyuridine, (b)/(a) mol ratio 0.5) of 49 mg/kg, an ED50 ((b) = 5Bromo-2'-deoxyuridine, (b)/(a) mol ratio 2) of 30 mg/kg and an ED50 ((b) = 5Bromo-2'-deoxyuridine, (b)/(a) mol ratio 10) of 22 mg/kg. It also gave an ED50 ((b) = 5Bromouracil, (b)/(a) mol ratio 0.5) of 39 mg/kg, an ED50 ((b) = 5Bromouracil, (b)/(a) mol ratio 2) of 26 mg/kg and an ED50 ((b) = 5Bromouracil, (b)/(a) mol ratio 10) of 21 mg/kg. It also gave an ED50 ((b) = 5Iodouracil, (b)/(a) mol ratio 1) of 26 mg/kg, an ED50 ((b) = 5Iodouracil, (b)/(a) mol ratio 2) of 17 mg/kg and an ED50 ((b) = 5Iodouracil, (b)/(a) mol ratio 5) of 11 mg/kg. The ED50 ((b) = Cytidine, (b)/(a) mol ratio 1) was 58 mg/kg, the ED50 ((b) = Cytidine, (b)/(a) mol ratio 2) was 39 mg/kg and the ED50 ((b) = Cytidine, (b)/(a) mol ratio 10) was 34 mg/kg. It also gave an ED50 ((b) = Cytosine, (b)/(a) mol ratio 1) of 56 mg/kg, an ED50 ((b) = Cytosine, (b)/(a) mol ratio 2) of 41 mg/kg and an ED50 ((b) = Cytosine, (b)/(a) mol ratio 10) of 24 mg/kg. It also gave an ED50 ((b) = Orotic acid, (b)/(a) mol ratio 1) of 69 mg/kg, an ED50 ((b) = Orotic acid, (b)/(a) mol ratio 2) of 61 mg/kg and an ED50 ((b) = Orotic acid, (b)/(a) mol ratio 20) of 46 mg/kg. For the same molecule, the ED50 ((b) = Thymidine, (b)/(a) mol ratio 0.5) was 67 mg/kg, the ED50 ((b) = Thymidine, (b)/(a) mol ratio 2) was 63 mg/kg and the ED50 ((b) = Thymidine, (b)/(a) mol ratio 10) was 60 mg/kg. The ED50 ((b) = Thymine, (b)/(a) mol ratio 0.5) was 48 mg/kg, the ED50 ((b) = Thymine, (b)/(a) mol ratio 2) was 27 mg/kg and the ED50 ((b) = Thymine, (b)/(a) mol ratio 10) was 14 mg/kg. It also gave an ED50 ((b) = Uridine, (b)/(a) mol ratio 1) of 43 mg/kg, an ED50 ((b) = Uridine, (b)/(a) mol ratio 2) of 31 mg/kg and an ED50 ((b) = Uridine, (b)/(a) mol ratio 20) of 29 mg/kg. For the same molecule, the ED50 ((b)/(a) mol ratio 0 (alone), oral, 50% cancer inhibition (T/C)) was 73 mg/kg.
